# Reference: the supplement of paper PMC4858399
# What was measured:
# [1] = test system: Caenorhabditis elegans N2; experiment: mean nematode size ln(EXT) after 48 h, plate-adjusted (DMSO control set to 6) (ln(EXT), control-adjusted); higher = larger nematodes / less growth inhibition; conditions: exposure time 48 h
# Procedure, shortened: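 C. elegans N2 larvae, synchronised at L1, grew for 48 h at 20°C in K-medium with killed OP50, 1% DMSO and 0.5–200 µM chemical. Mean size per well was derived from natural-logged Biosort extinction after a growth model removed debris. Adjustment across plates involved subtracting the vehicle control mean and adding 6.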
# [2] = test system: Caenorhabditis elegans N2; experiment: lowest effective concentration for larval growth inhibition (size below effect threshold); higher = less potent; conditions: exposure time 48 h
# Procedure, shortened: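 Log-transformed well means of per-worm extinction, read as size on a Biosort, came from 50 C. elegans N2 L1 larvae per 96-well grown 48 h at 20°C in K-medium with killed bacteria, 1% DMSO and 0.5 to 200 µM chemical. The lowest effective concentration is the first dose at which the plate-adjusted mean size is below the threshold and stays below it at every higher dose. The threshold is 5.665.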
Structure (SMILES),mean nematode size ln(EXT) (ln) ([1]; 0.5 µM),mean nematode size ln(EXT) (ln) ([1]; 1 µM),mean nematode size ln(EXT) (ln) ([1]; 5 µM),mean nematode size ln(EXT) (ln) ([1]; 10 µM),mean nematode size ln(EXT) (ln) ([1]; 50 µM),mean nematode size ln(EXT) (ln) ([1]; 100 µM),mean nematode size ln(EXT) (ln) ([1]; 200 µM),lowest effective concentration [2] [µM]
NC(=O)NO [Hydroxyurea],6,5.97,5.92,5.93,5.75,5.63,5.73,> 200
O=C1CCC(N2C(=O)c3ccccc3C2=O)C(=O)N1 (stereo unspecified) [Thalidomide],5.98,5.95,5.98,5.97,5.97,5.85,5.97,> 200
COCCOCCO [Diethylene glycol monomethyl ether],5.87,5.91,5.93,5.85,5.82,5.94,5.68,> 200
CCNc1nc(NC(C)C)nc(SC)n1 [Ametryn],6.09,6.82,6.12,6.27,6.45,6.38,5.72,> 200
O=NO [Sodium nitrite],6,6.02,6.05,6.03,6.08,6.04,5.75,> 200
"Cc1ccc(O)c(C)c1 [2,4-Dimethylphenol]",5.82,5.97,5.96,5.87,5.85,5.84,5.72,> 200
O=C1CCCO1 [4-Butyrolactone],6.1,6.08,6,6.1,6.09,6.02,5.81,> 200
